Laboratory results published in EP4725948A1, “PYRROLO[2,3-D]PYRIMIDIN-4-AMINE DERIVATIVE AND USE THEREOF IN MEDICINE” (Haisco Pharmaceutical Group Co., Ltd., priority 2023, dated 2024).

Key:
[1] = target: T1, sGC protein (Homo sapiens, UniProt Q02108+Q02153); test: cGMP detection experiment in LNCap cells; assay type: cell-based; settings: cGMP production in LNCap cells; 20 µM DETA-NO pre-incubation; relative to compound A
T1 construct: LNCap is a human prostate cancer cell line that expresses sGC protein; host or cells: LNCap (human prostate cancer cell line)
T1 sequence (Q02108 1-690): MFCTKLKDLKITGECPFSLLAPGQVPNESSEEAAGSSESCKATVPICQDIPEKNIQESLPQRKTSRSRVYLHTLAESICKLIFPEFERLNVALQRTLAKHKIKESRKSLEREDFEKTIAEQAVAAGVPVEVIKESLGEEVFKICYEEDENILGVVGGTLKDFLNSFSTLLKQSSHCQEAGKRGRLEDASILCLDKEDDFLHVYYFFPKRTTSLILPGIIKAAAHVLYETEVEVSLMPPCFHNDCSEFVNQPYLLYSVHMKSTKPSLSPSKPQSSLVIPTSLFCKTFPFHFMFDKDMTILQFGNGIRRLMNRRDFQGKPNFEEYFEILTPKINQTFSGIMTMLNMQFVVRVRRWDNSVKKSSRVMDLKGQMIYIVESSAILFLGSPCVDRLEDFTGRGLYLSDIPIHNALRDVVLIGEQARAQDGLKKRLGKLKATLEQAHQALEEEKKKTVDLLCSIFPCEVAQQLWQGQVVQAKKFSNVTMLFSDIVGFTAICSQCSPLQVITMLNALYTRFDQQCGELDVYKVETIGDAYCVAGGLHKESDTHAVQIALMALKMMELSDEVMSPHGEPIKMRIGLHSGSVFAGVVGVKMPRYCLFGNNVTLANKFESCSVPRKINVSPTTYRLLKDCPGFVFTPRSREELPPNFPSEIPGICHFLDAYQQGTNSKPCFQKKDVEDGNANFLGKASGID
T1 sequence (Q02153 1-619): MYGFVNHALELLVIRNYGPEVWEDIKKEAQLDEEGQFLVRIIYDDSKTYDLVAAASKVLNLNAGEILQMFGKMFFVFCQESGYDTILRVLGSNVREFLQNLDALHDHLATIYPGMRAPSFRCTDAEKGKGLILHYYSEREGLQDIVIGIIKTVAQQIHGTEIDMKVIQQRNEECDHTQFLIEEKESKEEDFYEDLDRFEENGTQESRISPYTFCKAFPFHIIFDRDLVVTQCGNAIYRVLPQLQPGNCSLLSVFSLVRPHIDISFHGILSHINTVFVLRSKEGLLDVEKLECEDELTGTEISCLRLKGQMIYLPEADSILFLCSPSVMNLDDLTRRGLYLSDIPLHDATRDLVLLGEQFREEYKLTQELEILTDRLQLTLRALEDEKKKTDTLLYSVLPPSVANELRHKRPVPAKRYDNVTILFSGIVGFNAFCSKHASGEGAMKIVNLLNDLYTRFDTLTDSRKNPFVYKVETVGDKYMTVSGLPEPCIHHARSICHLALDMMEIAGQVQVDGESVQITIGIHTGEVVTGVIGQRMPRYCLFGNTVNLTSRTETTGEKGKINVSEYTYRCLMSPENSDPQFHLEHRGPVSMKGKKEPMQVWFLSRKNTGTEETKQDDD
Description: LNCap is a human prostate cancer cell line that expresses sGC protein. […] On the day of the detection, the cells were reselected in assay buffer (EBSS assay buffer+[…] of MgCl2+10 mM HEPES+0.05% BSA) at a density of 2 × 10^5/mL. 0.5 mM IBMX was added to prevent cGMP degradation.
The cells were pre-incubated with 20 µM diethylenetriamine/nitric oxide (DETA-NO) at 37°C for 30 minutes, and then different concentrations of the compounds were added. The mixture was further incubated at room temperature for 1 h. After the incubation was completed, the reaction was terminated, and intracellular cGMP levels were measured according to the instructions for the CisBio kit (Cisbio, 62GM2PEC).

[2] = Pharmacokinetic test in rats (inhalation administration); settings: for Lung AUC0-t/plasma AUC0-t / Lung AUC0-t / Lung Cmax: SD rats, single inhalation dose 0.03 mg/kg; for Lung AUC0-t / Lung Cmax: lung tissue
Description: Experimental objective: In this experiment, the test compound was administered as a single dose via inhalation to SD rats, and the concentrations of the test compound in rat plasma and lungs were determined to evaluate the pharmacokinetic characteristics and bioavailability of the test compound in the rats.
Experimental animals: Male SD rats, 180-200 g, purchased from Chengdu Dossy Experimental Animals Co., Ltd.
Experimental method: On the day of the experiment, SD rats were randomly assigned into 6 groups according to body weight (for each compound), with 2 rats in each group. The rats were fasted with water available for 12 to 16 hours one day before the administration, and were fed 4 hours after the administration.
Plasma sampling: before and after the administration, blood was taken from the orbits of the rats under isoflurane anaesthesia, and placed in an EDTAK2 centrifuge tube. Centrifugation was performed at 6000 rpm at 4°C for 10 min, and the plasma was collected.
Lung tissue sampling: Animals from each group were euthanised by CO2 inhalation at 0.25, 0.5, 1, 4, 7 and 24 hours after the administration. Then, the animal was dissected to collect lung tissue, which was rinsed with physiological saline, dried with filter paper, weighed in the balance, kept on wet ice and homogenised within 2 hours using a 6-fold volume (i.e., 6 mL per 1 g of tissue) of homogenisation buffer (50% methanol-water).
Before analysis and detection, all samples were stored at -60°C. The samples were analysed quantitatively by LC-MS/MS.

[3] = target: T2, soluble guanylate cyclase (sGC) (Homo sapiens, UniProt Q02108+Q02153); test: In vitro detection experiment for soluble guanylate cyclase (sGC) activity (TR-FRET);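 further: enzyme reaction started with GTP and run for 60 min at 37°C, followed by a 60 min detection step at room temperature, with EC50 obtained by nonlinear curve fitting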
T2 sequence (Q02108 1-690): T1 sequence (Q02108 1-690)
T2 sequence (Q02153 1-619): T1 sequence (Q02153 1-619)
Description: First, 100 nL of the compounds at different concentrations were transferred to a 384-well reaction plate (Greiner, Cat. No. 784075) using Echo 655 (LABCYTE, Cat # 655), with the final DMSO concentration of 1% in the reaction mixture; 2 µL of sGC (ICE, Cat. No. S2304F-H07SH2) was added to a 384-well reaction plate, and the mixture was centrifuged at 1000 rpm for 1 min; and then 1 µL of DETA NONOate was added, and the mixture was incubated at 37°C for10 min. After the incubation was completed, 2 µL of GTP was added, and the mixture was centrifuged at 1000 rpm for 1 min and reacted at 37°C for 60 min. In the reaction system, the final concentrations of sGC, GTP, and DETA NONOate were 1.5 nM, 5 µM, and 100 µM, respectively. After the reaction was completed, 5 µL of the test mixture (PerkinElmer, Cat. No. 62GM2PEG) was added and incubated at room temperature for 60 min. The TR-FRET signal (Ratio: 665/620 nm) was read using a microplate reader (BMG, Cat. No. PHERAstar FSX). A nonlinear regression curve was fitted using GraphPad Prism software, and EC50 values were calculated. Compound A (Example 1 in WO 2010065275) was used as a positive reference compound.

[4] = AE frequency, riociguat group, cited from earlier work
[5] = 12-week PATENT-1 study (placebo 2%)

SMILES | EC50 [1] | Lung AUC0-t/plasma AUC0-t [2] | Lung AUC0-t [2] | Lung Cmax [2] | also measured
CC(C)(Cc1csc(C2(C)C(=O)Nc3nc(-n4nc(CCC(F)(F)C(F)(F)F)c5cc(Cl)ccc54)nc(N)c32)n1)C(=O)O (single isomer, unassigned) [Compound 4-1] | < 500 nM | 77.1 | 2462 ng·h/mL | 2352 ng/mL | –
CC(C)(Cc1csc(C2(C)C(=O)Nc3nc(-n4c(=O)n(Cc5ccccc5F)c5c(F)cccc54)nc(N)c32)n1)C(=O)O (single isomer, unassigned) [Compound 15-1] | < 500 nM | – | – | – | –
CC(C)(Cc1csc(C2(C)C(=O)Nc3nc(-n4nc(Cc5ccccc5F)c5cc(Cl)ccc54)nc(N)c32)n1)C(=O)O (single isomer, unassigned) [Compound 32-1] | < 500 nM | – | – | – | –
CC(C)(Cc1csc(C2(C)C(=O)Nc3nc(-n4nc(Cc5ccccc5F)c5ncc(F)cc54)nc(N)c32)n1)C(=O)O (single isomer, unassigned) [Compound 35-1] | < 500 nM | – | 5432 ng·h/mL | 2545 ng/mL | –
CC(C)(Cc1csc(C2(C)C(=O)Nc3nc(-n4nc(Cc5ccccc5F)c5c(F)cccc54)nc(N)c32)n1)C(=O)O (single isomer, unassigned) [Compound 41-1] | < 500 nM | – | – | – | –
CC(C)(Cc1csc(C2(C)C(=O)Nc3nc(-n4nc(CCC(F)(F)C(F)(F)F)c5c(F)cccc54)nc(N)c32)n1)C(=O)O (single isomer, unassigned) [Compound 43-1] | < 500 nM | – | – | – | –
CC(C)(Cc1csc([C@]2(C)C(=O)Nc3nc(-c4nc(CCC(F)(F)C(F)(F)F)n5ncccc45)nc(N)c32)n1)C(=O)O [Compound 3-1] | – | 65 | 3626 ng·h/mL | 2979 ng/mL | –
CC(C)(Cc1cccc([C@@]2(C)C(=O)Nc3nc(-c4nn(CCC(F)(F)C(F)(F)F)c5cc(Cl)cnc45)nc(N)c32)c1)C(=O)O [Compound 6-1] | – | 659 | 5173 ng·h/mL | 2825 ng/mL | –
CC(C)(Cc1csc([C@]2(C)C(=O)Nc3nc(-n4c(=O)n(CCC(F)(F)C(F)(F)F)c5c(F)cccc54)nc(N)c32)n1)C(=O)O [Compound 14-1] | < 500 nM | – | – | – | –
CC(C)(Cc1csc([C@]2(C)C(=O)Nc3nc(-n4nc(CCC(F)(F)C(F)(F)F)c5cc(F)ccc54)nc(N)c32)n1)C(=O)O [Compound 17-1] | < 500 nM | 48.4 | 2021 ng·h/mL | 1754 ng/mL | –
CC(C)(Cc1csc([C@]2(C)C(=O)Nc3nc(-c4nc(Cc5ccccc5F)n5ncccc45)nc(N)c32)n1)C(=O)O [Compound 19-1] | – | 245 | 12248 ng·h/mL | 2842 ng/mL | –
CC(C)(Cc1csc([C@]2(C)C(=O)Nc3nc(-n4c(=O)n(CCC(F)(F)C(F)(F)F)c5cc(F)ccc54)nc(N)c32)n1)C(=O)O [Compound 31-1] | < 500 nM | 97.9 | 608 ng·h/mL | 1183 ng/mL | –
CC(C)(Cc1csc([C@]2(C)C(=O)Nc3nc(-n4c(=O)n(Cc5ccccc5F)c5cc(F)ccc54)nc(N)c32)n1)C(=O)O [Compound 38-1] | – | 83.6 | – | 1743 ng/mL | –
CC(C)(Cc1csc([C@]2(C)C(=O)Nc3nc(-c4nc(CCC(F)(F)C(F)(F)F)n5cc(F)ccc45)nc(N)c32)n1)C(=O)O [Compound 45-1] | – | 43.4 | 4500 ng·h/mL | 2846 ng/mL | –
CC(C)(Cc1csc([C@]2(C)C(=O)Nc3nc(-c4nn(CCC(F)(F)C(F)(F)F)c5ncccc45)nc(N)c32)n1)C(=O)O [Control compound 1, reference compound] | 3220 nM | – | 220 ng·h/mL | 273 ng/mL | Kp ([2]; male, SD, rat, lung and plasma, inhaled or intranasal, 0.03 mg/kg): 29.1
CC(C)(Cc1coc(C2(C)C(=O)Nc3nc(-n4c(=O)n(CC5CCCCC5)c5c(F)cccc54)nc(N)c32)n1)C(=O)O (centres unmarked) [Trifluoroacetate of compound 27] | < 500 nM | – | – | – | EC50 [3]: < 20 nM
COC(=O)N(C)c1c(N)nc(-c2nn(Cc3ccccc3F)c3ncccc23)nc1N [riociguat, Riociguat] | – | – | – | – | constipation ([4]; 12-week PATENT-1 study (placebo 1%)): 5%; anaemia [4, 5]: 7%; gastrooesophageal reflux disease [4, 5]: 5%; hypotension ([4]; 12-week PATENT-1 study (placebo 4%)): 10%; vomiting ([4]; 12-week PATENT-1 study (placebo 7%)): 10%; diarrhoea ([4]; 12-week PATENT-1 study (placebo 8%)): 12%; dizziness ([4]; 12-week PATENT-1 study (placebo 13%)): 20%
